From patent US20250230165A1, “HETEROCYCLIC COMPOUNDS FOR USE IN THE TREATMENT OF CANCER” (ARTIOS PHARMA LIMITED, priority 2021, published 2025) come the findings set out here.

The structures appear in SMILES notation.

This test has as its target T1, Human Polθ polymerase domain (aa1820-2590) (Homo sapiens, UniProt O75417).
T1 construct: Human Polθ polymerase domain (aa1820-2590) was expressed in E. coli; made in house; host or cells: E. coli
T1 sequence (O75417 1820-2590): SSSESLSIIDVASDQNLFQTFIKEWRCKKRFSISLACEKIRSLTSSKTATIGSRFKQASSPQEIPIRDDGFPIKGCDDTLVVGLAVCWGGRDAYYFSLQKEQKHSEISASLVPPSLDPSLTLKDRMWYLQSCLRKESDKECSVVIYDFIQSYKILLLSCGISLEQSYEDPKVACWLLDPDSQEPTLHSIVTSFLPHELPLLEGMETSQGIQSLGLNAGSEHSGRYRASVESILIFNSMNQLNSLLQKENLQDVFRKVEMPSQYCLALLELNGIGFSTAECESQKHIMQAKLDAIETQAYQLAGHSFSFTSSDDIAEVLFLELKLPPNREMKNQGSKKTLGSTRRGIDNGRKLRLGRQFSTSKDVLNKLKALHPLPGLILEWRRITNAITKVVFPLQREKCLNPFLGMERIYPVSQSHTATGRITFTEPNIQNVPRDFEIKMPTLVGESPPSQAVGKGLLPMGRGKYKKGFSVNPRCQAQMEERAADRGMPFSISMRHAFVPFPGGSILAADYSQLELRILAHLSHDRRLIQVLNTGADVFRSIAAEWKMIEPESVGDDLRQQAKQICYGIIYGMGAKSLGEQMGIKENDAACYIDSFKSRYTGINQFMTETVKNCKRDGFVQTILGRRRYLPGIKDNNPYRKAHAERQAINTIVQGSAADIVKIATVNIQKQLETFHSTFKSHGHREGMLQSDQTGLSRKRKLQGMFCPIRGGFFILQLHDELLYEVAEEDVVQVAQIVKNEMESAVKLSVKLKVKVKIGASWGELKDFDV
Put plainly: Polθ Polymerase Domain Kinact/KI Assay (PicoGreen). The test is classed as biochemical. Particulars: 0.8 nM Polθ, 100 nM DNA substrate, kobs vs [I] fit for 2-step covalent inhibitor. In outline:
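Kinact and KI derive from fitting kobs versus [I], where kobs were fitted from EDTA-stopped PicoGreen time courses (up to 60 min) in Tris pH 7.5 buffer with 1% DMSO, 0.8 nM enzyme, 100 nM DNA and […].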
As for `Cc1cc(C(F)(F)F)cc(N2C(=O)C[C@@H]3CN(CC4CCC(C5CN(C(=O)/C=C/CN(C)C)C5)CC4)c4c(Cl)cccc4N(C)C(=O)[C@H]32)n1` (stereo partly drawn) [Example 155, (3aR, 11aS)-6-chloro-5-((4-(1-((E)-4-(dimethylamino)but-2-enoyl)azetidin-3-yl)cyclohexyl)methyl)-10-methyl-1-(6-methyl-4-(trifluoromethyl)pyridin-2-yl)-1,3a,4,5,10,11a-hexahydro-2H-benzo[b]pyrrolo[2,3-f][1,4]diazocine-2,11(3H)-dione], the Kinact/Kl was found to be 2.51e+06 M⁻¹ s⁻¹. To `C=CC(=O)N1Cc2cc(CN3C[C@H]4CC(=O)N(c5cc(C(F)(F)F)cc(C)n5)[C@@H]4C(=O)N(C)c4cccc(Cl)c43)cnc2C1COC` (single isomer, unassigned) [Example 237] belongs 270000 M⁻¹ s⁻¹; to `C=CC(=O)N1Cc2cc(CN3C[C@H]4CC(=O)N(c5cc(C(F)(F)F)cc(C)n5)[C@@H]4C(=O)N(C)c4cccc(Cl)c43)nn2CC1C` (single isomer, unassigned) [Example 294a], 1.61e+06 M⁻¹ s⁻¹; to `C=CC(=O)N1Cc2nc(CN3C[C@H]4CC(=O)N(c5cc(C(F)(F)F)cc(C)n5)[C@@H]4C(=O)N(C)c4cccc(Cl)c43)cn2C[C@H]1C(F)(F)F` (racemic) [Example 293a, (3aR,11aS)-5-(((S/R)-7-acryloyl-6-(trifluoromethyl)-5,6,7,8-tetrahydroimidazo[1,2-a]pyrazin-2-yl)methyl)-6-chloro-10-methyl-1-(6-methyl-4-(trifluoromethyl)pyridin-2-yl)-1,3a,4,5,10,11a-hexahydro-2H-benzo[b]pyrrolo[2,3-f][1,4]diazocine-2,11(3H)-dione], 880000 M⁻¹ s⁻¹. With `C=CC(=O)N1Cc2ccc(CN3C[C@H]4CC(=O)N(c5cc(C(F)(F)F)cc(C)n5)[C@@H]4C(=O)N(C)c4cccc(Cl)c43)cc2[C@@H]1CC#N` (racemic) [Example 288b, 2-((S/R)-2-acryloyl-6-(((3aR,11aS)-6-chloro-10-methyl-1-(6-methyl-4-(trifluoromethyl)pyridin-2-yl)-2,11-dioxo-1,2,3,3a,4,10,11,11a-octahydro-5H-benzo[b]pyrrolo[2,3-f][1,4]diazocin-5-yl)methyl)isoindolin-1-yl)acetonitrile], the Kinact/Kl came out at 500000 M⁻¹ s⁻¹. For `C=CC(=O)N1CC(N2CC[C@@H](CN3C[C@H]4CC(=O)N(c5cc(C(F)(F)F)cc(C)n5)[C@@H]4C(=O)N(C)c4cccc(Cl)c43)[C@H](C#N)C2)C1` (single isomer, unassigned) [Example 226a] the value was 230000 M⁻¹ s⁻¹; for `Cc1cc(C(F)(F)F)cc(N2C(=O)C[C@@H]3CN(CCCOC4CN(C(=O)C5=CCCNC5)C4)c4c(C)cccc4N(C)C(=O)[C@H]32)n1` [Example 82, (3aR,11aS)-6,10-dimethyl-1-(6-methyl-4-(trifluoromethyl)pyridin-2-yl)-5-(3-((1-(1,2,5,6-tetrahydropyridine-3-carbonyl)azetidin-3-yl)oxy)propyl)-1,3a,4,5,10,11a-hexahydro-2H-benzo[b]pyrrolo[2,3-f][1,4]diazocine-2,11(3H)-dione], 920000 M⁻¹ s⁻¹. To `C=CC(=O)N1CCOc2cc(CN3C[C@H]4CC(=O)N(c5cc(C(F)(F)F)cc(C)n5)[C@@H]4C(=O)N(C)c4cccc(Cl)c43)ccc21` [Example 281, (3aR,11aS)-5-((4-acryloyl-3,4-dihydro-2H-benzo[b][1,4]oxazin-7-yl)methyl)-6-chloro-10-methyl-1-(6-methyl-4-(trifluoromethyl)pyridin-2-yl)-1,3a,4,5,10,11a-hexahydro-2H-benzo[b]pyrrolo[2,3-f][1,4]diazocine-2,11(3H)-dione] belongs 1.05e+06 M⁻¹ s⁻¹.

In the case of `Cc1cc(C(F)(F)F)cc(N2C(=O)C[C@@H]3CN(Cc4cccc(NC(=O)/C=C/CN(C)C)c4)c4c(Cl)cccc4N(C)C(=O)[C@H]32)n1` [Example 247, (E)-N-(3-(((3aR,11aS)-6-chloro-10-methyl-1-(6-methyl-4-(trifluoromethyl)pyridin-2-yl)-2,11-dioxo-1,2,3,3a,4,10,11,11a-octahydro-5H-benzo[b]pyrrolo[2,3-f][1,4]diazocin-5-yl)methyl)phenyl)-4-(dimethylamino)but-2-enamide], the Kinact/Kl stood at 980000 M⁻¹ s⁻¹.

Turning to `Cc1cc(C(F)(F)F)cc(N2C(=O)C[C@@H]3CN(Cc4cn5c(n4)CN(C(=O)/C=C/C(F)F)CC5)c4c(Cl)cccc4N(C)C(=O)[C@H]32)n1` [Example 306, (3aR,11aS)-6-chloro-5-((7-((E)-4,4-difluorobut-2-enoyl)-5,6,7,8-tetrahydroimidazo[1,2-a]pyrazin-2-yl)methyl)-10-methyl-1-(6-methyl-4-(trifluoromethyl)pyridin-2-yl)-1,3a,4,5,10,11a-hexahydro-2H-benzo[b]pyrrolo[2,3-f][1,4]diazocine-2,11(3H)-dione], the Kinact/Kl was 1.54e+06 M⁻¹ s⁻¹. `C=C(CN(C)C)C(=O)N[C@H]1CCc2nc(CN3C[C@H]4CC(=O)N(c5cc(C(F)(F)F)cc(C)n5)[C@@H]4C(=O)N(C)c4cccc(C)c43)cn2C1` (racemic) [Example 329b, N-((S/R)-2-(((3aR, 11aS)-6,10-dimethyl-1-(6-methyl-4-(tri-fluoromethyl)pyridin-2-yl)-2,11-dioxo-1,2,3,3a,4,10,11,11a-octahydro-5H-benzo [b]pyrrolo[2,3-f][1,4]diazocin-5-yl)meth-yl)-5,6,7,8-tetrahydro-imidazo[1,2-a]pyr-idin-6-yl)-2-((dimeth-ylamino)methyl)-acrylamide] yielded a Kinact/Kl of 5.73e+06 M⁻¹ s⁻¹. To `C=CC(=O)N1Cc2nc(CN3C[C@H]4CC(=O)N(c5cc(C(F)(F)F)cc(C)n5)[C@@H]4C(=O)N(C)c4cccc(Cl)c43)n(CC)c2C1` [Example 279, (3aR,11aS)-5-((5-acryloyl-1-ethyl-1,4,5,6-tetrahydropyrrolo[3,4-d]imidazol-2-yl)methyl)-6-chloro-10-methyl-1-(6-methyl-4-(trifluoromethyl)pyridin-2-yl)-1,3a,4,5,10,11a-hexahydro-2H-benzo[b]pyrrolo[2,3-f][1,4]diazocine-2,11(3H)-dione] belongs 900000 M⁻¹ s⁻¹; to `Cc1cc(C(F)(F)F)cc(N2C(=O)C[C@@H]3CN(Cc4ccc5c(c4)CN(C(=O)/C(Cl)=C/CN(C)C)C5)c4c(C)cccc4N(C)C(=O)[C@H]32)n1` [Example 255, (3aR,11aS)-5-((2-((Z)-2-chloro-4-(dimethylamino)but-2-enoyl)isoindolin-5-yl)methyl)-6,10-dimethyl-1-(6-methyl-4-(trifluoromethyl)pyridin-2-yl)-1,3a,4,5,10,11a-hexahydro-2H-benzo[b]pyrrolo[2,3-f][1,4]diazocine-2,11(3H)-dione], 980000 M⁻¹ s⁻¹. To `C=CC(=O)N1C[C@@H](F)[C@H](n2cc(CN3C[C@H]4CC(=O)N(c5cc(C(F)(F)F)cc(C)n5)[C@@H]4C(=O)N(C)c4cccc(C)c43)cn2)C1` (single isomer, unassigned) [Example 325b] belongs 870000 M⁻¹ s⁻¹; to `C=CC(=O)NCC12CC(CN3C[C@H]4CC(=O)N(c5cc(C(F)(F)F)cc(C)n5)[C@@H]4C(=O)N(C)c4cccc(C)c43)(C1)C2` [Example 175, N-((3-(((3aR,11aS)-6,10-dimethyl-1-(6-methyl-4-(tri-fluoromethyl)pyr-idin-2-yl)-2,11-dioxo-1,2,3,3a,4, 10,11,11a-octa-hydro-5H-benzo [b]pyrrolo[2,3-f] [1,4]diazocin-5-yl)methyl)bicyclo [1.1.1]pentan-1-yl)-methyl)acrylamide], 370000 M⁻¹ s⁻¹; to `C=CC(=O)N1CC2(C1)NCCN(CCN1C[C@H]3CC(=O)N(c4cc(C(F)(F)F)cc(C)n4)[C@@H]3C(=O)N(C)c3cccc(F)c31)[C@H]2C` (racemic) [Example 34a, (3aR,11aS)-5-(2-((S/R)-2-acryloyl-9-methyl-2,5,8-triazaspiro[3.5]nonan-8-yl)ethyl)-6-fluoro-10-methyl-1-(6-methyl-4-(trifluoromethyl)pyridin-2-yl)-1,3a,4,5, 10,11a-hexahydro-2H-benzo[b]pyrrolo [2,3-f][1,4]diazocine-2,11(3H)-dione], 1.2e+06 M⁻¹ s⁻¹.

`C=C(CN(C)C)C(=O)N1CC(CN2C[C@H]3CC(=O)N(c4cc(C(F)(F)F)cc(C)n4)[C@@H]3C(=O)N(C)c3cccc(Cl)c32)C1` [Example 297, (3aR,11aS)-6-chloro-5-((1-(2-((dimethylamino)methyl)acryloyl)azetidin-3-yl)methyl)-10-methyl-1-(6-methyl-4-(trifluoromethyl)pyridin-2-yl)-1,3a,4,5,10,11a-hexahydro-2H-benzo[b]pyrrolo[2,3-f][1,4]diazocine-2,11(3H)-dione] registered a Kinact/Kl of 1.47e+06 M⁻¹ s⁻¹.
